Measured values taken from patent publication US8629148B2, “Substituted oxindole-derivatives and the use thereof for the treatment of vasopressin-dependent illnesses” (AbbVie Deutschland GmbH & Co. KG, priority 2007, dated 2014).
pKi: −log10 of the molar value.

Experiments:
[1] = molecular target: human vasopressin V1a receptor (Homo sapiens, UniProt P37288); assay: Vasopressin V1a receptor binding assay (125I-AVP displacement, CHO-K1 membranes); settings: selectivity quotient, human V1a vs human V1b
[2] = molecular target: T1, human vasopressin V1b receptor (Homo sapiens, UniProt P47901); assay: Vasopressin V1b receptor binding assay (3H-AVP displacement, CHO-K1 membranes)
T1 construct: expressed in transfected cells; host or cells: CHO-K1 (cell line hV1b_3H2_CHO), membranes
T1 sequence (P47901 1-424): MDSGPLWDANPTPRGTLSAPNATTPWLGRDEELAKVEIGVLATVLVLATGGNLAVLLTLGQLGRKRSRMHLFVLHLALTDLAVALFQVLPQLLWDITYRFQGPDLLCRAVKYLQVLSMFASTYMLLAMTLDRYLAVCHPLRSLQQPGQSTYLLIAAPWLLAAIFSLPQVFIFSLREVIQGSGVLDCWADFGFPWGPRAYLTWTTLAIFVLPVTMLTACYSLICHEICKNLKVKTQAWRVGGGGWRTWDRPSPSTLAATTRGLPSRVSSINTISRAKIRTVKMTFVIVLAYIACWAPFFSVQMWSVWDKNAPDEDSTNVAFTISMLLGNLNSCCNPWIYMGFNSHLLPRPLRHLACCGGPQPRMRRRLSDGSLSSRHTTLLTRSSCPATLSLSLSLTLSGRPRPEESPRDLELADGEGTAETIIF
Method: 1. Vasopressin V1b Receptor Binding Assay:
The substance concentration was further diluted 1:5 in the assay mixture (2% DMSO in the mixture).
All determinations were carried out as triplicate determinations.

[3] = molecular target: T2, recombinant human oxytocin receptors (Homo sapiens, UniProt P30559); assay: Oxytocin receptor binding assay (3H-oxytocin, HEK-293 cells); settings: selectivity quotient, human OT vs human V1b
T2 construct: expressed in transfected cells; host or cells: HEK-293, transient expression; lysed and homogenized cells
T2 sequence (P30559 1-389): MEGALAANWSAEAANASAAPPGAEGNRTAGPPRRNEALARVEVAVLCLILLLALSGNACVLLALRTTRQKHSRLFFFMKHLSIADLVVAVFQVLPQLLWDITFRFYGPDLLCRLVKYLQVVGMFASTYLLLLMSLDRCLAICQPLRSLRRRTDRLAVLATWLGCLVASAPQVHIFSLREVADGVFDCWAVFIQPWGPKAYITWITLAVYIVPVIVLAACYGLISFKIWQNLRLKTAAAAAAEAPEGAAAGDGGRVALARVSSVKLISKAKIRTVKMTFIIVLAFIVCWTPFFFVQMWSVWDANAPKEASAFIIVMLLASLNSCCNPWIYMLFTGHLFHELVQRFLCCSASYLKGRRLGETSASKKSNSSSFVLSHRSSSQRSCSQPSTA
Method: The residue was taken up in ice-cold lysis buffer (50 mM Tris-HCl, 10% glycerol, pH 7.4 and Roche complete protease inhibitor) and subjected to an osmotic shock at 4° C. for 20 minutes. The lyzed cells were then centrifuged at 750×g at 4° C. for 20 minutes, the residue was taken up in incubation buffer, and aliquots of 10^7 cells/ml were prepared. The aliquots were frozen at −80° C. until used.
On the day of the experiment, the cells were thawed, diluted with incubation buffer and homogenized using a Multipette Combitip (Eppendorf, Hamburg). […] Triplicate determinations were set up. Bound and free radioligand were separated by filtration under vacuum with Whatman GF/B glass fiber filters with the aid of a Skatron cell harvester 7000. The bound radioactivity was determined by liquid scintillation measurement in a Tricarb Beta counter, model 2000 or 2200CA (Packard).

Sequence of human vasopressin V1a receptor (P37288 whole entry): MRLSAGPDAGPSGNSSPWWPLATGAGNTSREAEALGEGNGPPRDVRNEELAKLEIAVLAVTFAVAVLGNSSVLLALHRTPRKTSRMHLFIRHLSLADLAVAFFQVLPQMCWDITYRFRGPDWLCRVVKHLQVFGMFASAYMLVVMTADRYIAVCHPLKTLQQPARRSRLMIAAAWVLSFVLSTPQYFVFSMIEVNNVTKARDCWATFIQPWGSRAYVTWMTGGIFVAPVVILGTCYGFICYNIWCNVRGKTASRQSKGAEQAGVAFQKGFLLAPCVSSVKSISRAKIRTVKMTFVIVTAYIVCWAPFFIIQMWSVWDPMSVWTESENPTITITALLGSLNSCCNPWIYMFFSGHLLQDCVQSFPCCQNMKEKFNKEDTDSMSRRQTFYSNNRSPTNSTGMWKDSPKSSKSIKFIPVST

## CCOc1ncccc1C1(NCc2ccc(N3CCNCC3)cc2)C(=O)N(S(=O)(=O)c2ccc(OC)cc2OC)c2ccc(C#N)cc21 (stereo not drawn) [Example 29, 1-(2,4-Dimethoxyphenylsulfonyl)-3-(2-ethoxypyridin-3-yl)-2-oxo-3-(4-piperazin-1-yl-benzylamino)-2,3-dihydro-1H-indole-5-carbonitrile]
[1]
  Ki(h-V1a)/Ki(h-V1b)*: ++ (25-75)
[2]
  pKi: 8.00 to 9.00
[3]
  Ki(h-OT)/Ki(h-V1b)*: + (10-<25)

## CCOc1ncccc1C1(NCc2ccc(N3CCNCC3)cc2)C(=O)N(S(=O)(=O)c2ccc(OC)cc2)c2ccc(C#N)cc21 (stereo not drawn) [Example 30, 3-(2-Ethoxypyridin-3-yl)-1-(4-methoxyphenylsulfonyl)-2-oxo-3-(4-piperazin-1-yl-benzylamino)-2,3-dihydro-1H-indole-5-carbonitrile]
[1]
  Ki(h-V1a)/Ki(h-V1b)*: +++ (>75)
[2]
  pKi: 8.00 to 9.00
[3]
  Ki(h-OT)/Ki(h-V1b)*: +++ (>75)

## CCOc1ncccc1C1(NCc2ccc(N3CCN(CC)CC3)cc2)C(=O)N(S(=O)(=O)c2ccc(OC)cc2)c2ccc(C#N)cc21 (stereo not drawn) [Example 31, 3-(2-Ethoxypyridin-3-yl)-3-[4-(4-ethylpiperazin-1-yl)benzylamino]-1-(4-methoxy-phenylsulfonyl)-2-oxo-2,3-dihydro-1H-indole-5-carbonitrile]
[1]
  Ki(h-V1a)/Ki(h-V1b)*: +++ (>75)
[2]
  pKi: > 9.00
[3]
  Ki(h-OT)/Ki(h-V1b)*: +++ (>75)

## CCOc1ncccc1C1(NCc2ccc(N3CCN(C)CC3)cc2)C(=O)N(S(=O)(=O)c2ccc(OC)cc2)c2cc(F)c(C#N)cc21 (stereo not drawn) [Example 33, 3-(2-Ethoxypyridin-3-yl)-6-fluoro-1-(4-methoxyphenylsulfonyl)-3-[4-(4-methylpiperazin-1-yl)benzylamino]-2-oxo-2,3-dihydro-1H-indole-5-carbonitrile]
[1]
  Ki(h-V1a)/Ki(h-V1b)*: +++ (>75)
[2]
  pKi: > 9.00
[3]
  Ki(h-OT)/Ki(h-V1b)*: +++ (>75)

## CCOc1ncccc1C1(NCc2ccc(N3CCNCC3)cc2)C(=O)N(S(=O)(=O)c2ccc(OC)cc2)c2cc(F)c(C#N)cc21 (stereo not drawn) [Example 34, 3-(2-Ethoxypyridin-3-yl)-6-fluoro-1-(4-methoxyphenylsulfonyl)-2-oxo-3-(4-piperazin-1-yl-benzylamino)-2,3-dihydro-1H-indole-5-carbonitrile]
[1]
  Ki(h-V1a)/Ki(h-V1b)*: + (10-<25)
[2]
  pKi: 8.00 to 9.00
[3]
  Ki(h-OT)/Ki(h-V1b)*: +++ (>75)

## CCOc1ncccc1C1(NCc2ccc(N3CCN(CC)CC3)cc2)C(=O)N(S(=O)(=O)c2ccc(OC)cc2)c2cc(F)c(C#N)cc21 (stereo not drawn) [Example 35, 3-(2-Ethoxypyridin-3-yl)-3-[4-(4-ethylpiperazin-1-yl)benzylamino]-6-fluoro-1-(4-methoxyphenylsulfonyl)-2-oxo-2,3-dihydro-1H-indole-5-carbonitrile]
[1]
  Ki(h-V1a)/Ki(h-V1b)*: + (10-<25)
[2]
  pKi: 8.00 to 9.00
[3]
  Ki(h-OT)/Ki(h-V1b)*: +++ (>75)

## CCOc1ccccc1C1(NCc2ccc(N3CCN(C)CC3)cc2)C(=O)N(S(=O)(=O)c2ccc(OC)cc2)c2ccc(C#N)cc21 (stereo not drawn) [Example 37, 3-(2-Ethoxyphenyl)-1-(4-methoxyphenylsulfonyl)-3-[4-(4-methylpiperazin-1-yl)-benzylamino]-2-oxo-2,3-dihydro-1H-indole-5-carbonitrile]
[1]
  Ki(h-V1a)/Ki(h-V1b)*: ++ (25-75)
[2]
  pKi: 8.00 to 9.00
[3]
  Ki(h-OT)/Ki(h-V1b)*: +++ (>75)

## CCOc1ncccc1C1(NCc2cccc(N3CCN(C)CC3)c2)C(=O)N(S(=O)(=O)c2ccc(OC)cc2OC)c2ccc(I)cc21 (stereo not drawn) [Example 38, 1-(2,4-Dimethoxyphenylsulfonyl)-3-(2-ethoxypyridin-3-yl)-5-iodo-3-[3-(4-methylpiperazin-1-yl)benzylamino]-1,3-dihydroindol-2-one]
[1]
  Ki(h-V1a)/Ki(h-V1b)*: + (10-<25)
[2]
  pKi: 8.00 to 9.00
[3]
  Ki(h-OT)/Ki(h-V1b)*: + (10-<25)

## CCOc1ncccc1C1(NCc2cccc(N3CCN(C)CC3)c2)C(=O)N(S(=O)(=O)c2ccc(OC)cc2)c2ccc(I)cc21 (stereo not drawn) [Example 40, 3-(2-Ethoxypyridin-3-yl)-5-iodo-1-(4-methoxyphenylsulfonyl)-3-[3-(4-methylpiperazin-1-yl)-benzylamino]-1,3-dihydroindol-2-one]
[1]
  Ki(h-V1a)/Ki(h-V1b)*: ++ (25-75)
[2]
  pKi: 8.00 to 9.00
[3]
  Ki(h-OT)/Ki(h-V1b)*: ++ (25-75)

## CCOc1ncccc1C1(NCc2cccc(N3CCN(C)CC3)c2)C(=O)N(S(=O)(=O)c2ccccc2OC)c2ccc(I)cc21 (stereo not drawn) [Example 41, 3-(2-Ethoxypyridin-3-yl)-5-iodo-1-(2-methoxyphenylsulfonyl)-3-[3-(4-methylpiperazin-1-yl)-benzylamino]-1,3-dihydroindol-2-one]
[1]
  Ki(h-V1a)/Ki(h-V1b)*: ++ (25-75)
[2]
  pKi: 8.00 to 9.00
[3]
  Ki(h-OT)/Ki(h-V1b)*: ++ (25-75)

## CCOc1ncccc1C1(NCc2cccc(N3CCN(C)CC3)c2)C(=O)N(S(=O)(=O)c2ccc(OC)cc2)c2ccc(C#N)cc21 (stereo not drawn) [Example 43, 3-(2-Ethoxypyridin-3-yl)-1-(4-methoxyphenylsulfonyl)-3-[3-(4-methylpiperazin-1-yl)-benzylamino]-2-oxo-2,3-dihydro-1H-indole-5-carbonitrile]
[1]
  Ki(h-V1a)/Ki(h-V1b)*: +++ (>75)
[2]
  pKi: 8.00 to 9.00
[3]
  Ki(h-OT)/Ki(h-V1b)*: + (10-<25)

## CCOc1ncccc1C1(Nc2ccc(N3CCN(C)CC3)cc2)C(=O)N(S(=O)(=O)c2ccc(OC)cc2)c2ccc(I)cc21 (stereo not drawn) [Example 50, 3-(2-Ethoxypyridin-3-yl)-5-iodo-1-(4-methoxyphenylsulfonyl)-3-[4-(4-methylpiperazin-1-yl)-phenylamino]-1,3-dihydroindol-2-one]
[1]
  Ki(h-V1a)/Ki(h-V1b)*: + (10-<25)
[2]
  pKi: 8.00 to 9.00
[3]
  Ki(h-OT)/Ki(h-V1b)*: +++ (>75)

## CCOc1ncccc1C1(Nc2ccc(N3CCN(CC)CC3)cc2)C(=O)N(S(=O)(=O)c2ccc(OC)cc2)c2ccc(C#N)cc21 (stereo not drawn) [Example 57, 3-(2-Ethoxypyridin-3-yl)-3-[4-(4-ethylpiperazin-1-yl)phenylamino]-1-(4-methoxyphenylsulfonyl)-2-oxo-2,3-dihydro-1H-indole-5-carbonitrile]
[1]
  Ki(h-V1a)/Ki(h-V1b)*: ++ (25-75)
[2]
  pKi: 7.00 to 8.00
[3]
  Ki(h-OT)/Ki(h-V1b)*: +++ (>75)

## CCOc1ncccc1C1(Nc2ccc(N3CCN(C)CC3)cc2)C(=O)N(S(=O)(=O)c2ccc(OC)cc2)c2cc(F)c(C#N)cc21 (stereo not drawn) [Example 59, 3-(2-Ethoxypyridin-3-yl)-6-fluoro-1-(4-methoxyphenylsulfonyl)-3-[4-(4-methylpiperazin-1-yl)phenylamino]-2-oxo-2,3-dihydro-1H-indole-5-carbonitrile]
[1]
  Ki(h-V1a)/Ki(h-V1b)*: ++ (25-75)
[2]
  pKi: 8.00 to 9.00
[3]
  Ki(h-OT)/Ki(h-V1b)*: +++ (>75)

## CCOc1ncccc1C1(Nc2cccc(N3CCN(C)CC3)c2)C(=O)N(S(=O)(=O)c2ccc(OC)cc2OC)c2ccc(I)cc21 (stereo not drawn) [Example 60, 1-(2,4-Dimethoxyphenylsulfonyl)-3-(2-ethoxypyridin-3-yl)-5-iodo-3-[3-(4-methylpiperazin-1-yl)phenylamino]-1,3-dihydroindol-2-one]
[1]
  Ki(h-V1a)/Ki(h-V1b)*: ++ (25-75)
[2]
  pKi: 8.00 to 9.00
[3]
  Ki(h-OT)/Ki(h-V1b)*: ++ (25-75)

## CCOc1ncccc1C1(Nc2ccc(N3CCN(C)CC3)nc2)C(=O)N(S(=O)(=O)c2ccc(OC)cc2)c2ccc(I)cc21 (stereo not drawn) [Example 68, 3-(2-Ethoxypyridin-3-yl)-5-iodo-1-(4-methoxyphenylsulfonyl)-3-[6-(4-methylpiperazin-1-yl)-pyridin-3-ylamino]-1,3-dihydroindol-2-one]
[1]
  Ki(h-V1a)/Ki(h-V1b)*: + (10-<25)
[2]
  pKi: 8.00 to 9.00
[3]
  Ki(h-OT)/Ki(h-V1b)*: ++ (25-75)

## CCOc1ncccc1C1(Nc2ccc(C(=O)N3CCN(C)CC3)cc2)C(=O)N(S(=O)(=O)c2ccc(OC)cc2)c2ccc(I)cc21 (stereo not drawn) [Example 70, 3-(2-Ethoxypyridin-3-yl)-5-iodo-1-(4-methoxyphenylsulfonyl)-3-[4-(4-methylpiperazin-1-carbonyl)phenylamino]-1,3-dihydroindol-2-one]
[1]
  Ki(h-V1a)/Ki(h-V1b)*: ++ (25-75)
[2]
  pKi: 8.00 to 9.00
[3]
  Ki(h-OT)/Ki(h-V1b)*: + (10-<25)
